Test results taken from patent publication US20230338529A1, “COMPOSITIONS FOR ALTERING A MICROGLIAL CELL, AND METHODS OF USE THEREFORE” (The Children's Medical Center Corporation, priority 2020, published 2023).

Assays:
[1] = system: neonatal spinal cord lesion after P2 crush; test: P2 spinal cord crush with microglia depletion: bridge formation, wound healing and axon regrowth by immunostaining; assay type: in vivo, mice
Description: Newborn pups (P2/P7) were anesthetized by isoflurane. A laminectomy was performed at T10 until the spinal cord was exposed completely from side-to-side. The spinal cord was then fully crushed for 2 seconds with forceps with a width of 0.1 mm in the last 5 mm of tips. The muscles and skin were sutured in layers with 6-0 sutures. EMLA topical cream was used for post-surgery analgesia. Animals then were warmed up and kept in a box containing the bedding from the original cage for at least 30 minutes. After that, the closed surgical site was rubbed with the feces from the mom using a Q-tip and then returned to the mom. Feeding was closely monitored in the first week after surgery. Nutra-Gel diets (Bio-Serv) or breeder chow diets were provided to avoid cannibalism. […] In case of bladder dysfunction, bladder emptying was performed once a day until bladder function was restored.
(§1) Mice were given a lethal dose of anesthesia and transcardially perfused with PBS followed by 4% paraformaldehyde (PFA). PFA fixed tissues were incubated in 30% sucrose in PBS for 3 days at 4° C., embedded in OCT (Tissue-Tek), frozen in a dry ice/ethanol bath, and stored at -80° C. Transverse and sagittal sections were cut on a cryostat at 30 µm thick and stored at -20° C. until processed. Before staining, sections were warmed to room temperature and dried on a 37° C. slide warmer for 2 h. Sections then were treated with a blocking solution containing 10% normal donkey serum and 0.5% Triton-100 for 2 hours at room temperature. The primary antibodies used were: rabbit/goat anti-5-HT [Immunostar (20080/20079), 1: 5,000]; rabbit anti-GFAP [DAKO (Z0334), 1:600]; rat anti-GFAP [Thermo Fisher (13-0300), 1:600]; rabbit anti-P2Y12 [AnaSpec (AS-55043A), 1:200]; rat anti-CD68 [Bio-Rad (MCA1957), 1:600]; rabbit anti-Fibronectin [Millipore (AB2033), 1:200]; rabbit anti- Collagen I [Abcam (ab21286), 1:200]; chicken anti-GFP [Abcam (ab13970), 1:400]; goat anti-SPP1 [R&D (AF808), 1:400]; mouse anti-Ly6G/Ly6C [R&D (MAB1037), 1:200]; mouse anti-CSPG [Sigma-Aldrich (C8035), 1:200]; rabbit anti-CSPG [Sigma-Aldrich (L9393), 1:500]; rabbit anti-RFP [Abcam (ab34771), 1:400]. Secondary antibodies included: Alexa Fluor 488-conjugated donkey anti chicken/rabbit; Alexa Fluor 555-conjugated donkey anti goat/rabbit/mouse and Dylight 650-conjugated donkey anti rat (all from Invitrogen). Spinal cord transverse and sagittal sections were imaged with a confocal laser-scanning microscope (Zeiss 700 or Zeiss 710). Figures showing large longitudinal spinal cord section were acquired using Zeiss 710 with image stitching and/or stack software.
The lesion site was defined and traced using Collagen I, Fibronectin, GFAP, P2Y12, CD68, CD31, CSPG, Laminin or Ly6G/Ly6C staining. Mice were perfused separately at 3, 7 or 14 days after spinal cord crush as described above to visualize lesion site. Cell nuclei were stained by incubation with DAPI for 30 seconds. Immunostaining intensity in the lesion site (100 µm width region in the epicenter) was measured using ImageJ software and normalized to the intact (proximal) region of the spinal cord.
To quantify the regenerating/late-arriving 5-HT/CST axons after spinal cord crush, sagittal sections through the lesion were stained with antibodies against 5-HT or RFP. Images of 5-6 sections for each animal were taken under a 10X objective and used for quantification. A series of rectangular segments 100 µm wide and 400 µm high covering the dorsal-ventral aspect of the cord were superimposed onto the sagittal sections, starting from lesion center up to a defined distance caudal. After subtracting the background, the pixel value of each segment was normalized by dividing with the rostral segment (1 mm rostral). The results were presented as a ratio at different distances (axons density index).
To deplete microglia in vivo, adult mice were given the CSF1R inhibitor PLX3397 mixed into AIN-76A standard chow (Research Diets). […]

microglia = test: Microglia depletion in vivo with PLX3397, P2Y12-stained spinal cord; set-up: species or system mice; conditions: 7 days after PLX3397 treatment; P2Y12 staining
Description: as §1, with “Secondary antibodies included: Alexa Fluor 488-conjugated donkey anti chicken/rabbit; Alexa Fluor 555-conjugated donkey anti goat/rabbit/mouse and Dylight 650-conjugated donkey anti rat (all from Invitrogen). Spinal cord transverse and sagittal sections were imaged with a confocal laser-scanning microscope (Zeiss 700 or Zeiss 710). Figures showing large longitudinal spinal cord section were acquired using Zeiss 710 with image stitching and/or stack software.” left out

Compound: FC(F)(F)c1ccc(CNc2ccc(Cc3c[nH]c4ncc(Cl)cc34)cn2)cn1 [PLX3397]
- bridge formation (fibronectin, CD68 staining) ([1]; P2 crush, 3 dpi): defects of bridge formation
- wound healing and axon regeneration after neonatal crush (5-HT, GFAP staining) ([1]; P2 crush, 7 dpi): impairs wound healing and axon regeneration
- GFAP+ reactive astrocytes in the lesion ([1]; P2 crush, 14 dpi): strong GFAP+ reactive astrocytes accumulating in the epicenter
- accumulation of basal lamina components (CSPG, laminin) ([1]; P2 crush, 14 dpi): limited accumulations
- axon growth at the lesion (5-HT) ([1]; P2 crush, 14 dpi): majority of axons stalled at the lesion epicenter
- blood vessels in the lesion (CD31) ([1]; P2 crush, 14 dpi): blood vessels were absent
- bridge formation between the two severed stumps ([1]; P2 injury model, 3 or 7 dpi): impaired bridge formation
- microglia depletion in neonatal spinal cord (microglia): most microglia were depleted
